# Results: patent publication US20060292203A1, “Methods and compositions for the treatment of ocular disorders” (TargeGen, Inc., priority 2005, published 2006)
# What was measured:
# Water solubility (pH 5) = details: for Water solubility: pH 5; for solubility: pH 5, water
# [1] = Phospholipid affinity PC:Drug (molar); type: physicochemical; details: molar ratio PC:Drug
# [2] = Pharmacokinetic study of Compound (VI) after topical administration (Example 14); type: in vivo, Dutch-Belted rabbits; details: BID for three days vs QD for three days, 1% dose
# Protocol: A formulation prepared as described in example 13 was used. Compound (VI) was administered topically (50 μL) to rabbits either as BID for three days or QD for three days dose regimen (1% dose).
# [3] = system: choroidal neovascularization; test: Laser-induced choroidal neovascularization model; type: in vivo, C57BL/6 mice; details: for Reduction of area of neovascularization compared to control: topical
# Protocol: After 2 weeks, mice were perfused with fluorescein-labeled dextran, and choroidal flatmounts were analyzed using image analysis software to recognize fluorescently stained neovascularization and calculate the total area of neovascularization per retina.
# [4] = system: VEGF-induced retinal permeability; test: Ocular model of retinal edema following eyedrops (Evans Blue albumin leakage); type: in vivo; details: mice
# Protocol: Formulations prepared as described in Examples 20 and 21 were used in these studies. Topical eyedrops of Compound (V) (one time or three times a day), or Compound (VI) (single eye drop) were administered to mice. After 1-2 hr, VEGF was injected intravitreally into mouse eyes. An hour later Evans Blue dye was injected intravenously into the tail vein. About 4 hrs later animals were sacrificed, blood was collected and eyes were enucleated. VEGF-induced retinal permeability as measured by albumin leakage in the eye was measured.
# [5] = Pharmacokinetic study of Compound (V) after topical administration (Example 4); type: in vivo, Dutch-Belted rabbits; details: 50 μL topical, 0.5% dose, QD for one day; rabbit
# Protocol: A formulation containing Compound (V) prepared as described in Example 1 was used in this experiment. 50 μL of Compound (V) (QD for one day) was administered topically to rabbits at 0.5% dose. Ocular tissues such as choroid, retina, sclera and cornea were collected and concentrations measured. Choroidal concentrations were 4 fold higher than retinal concentration.
# [6] = Pharmacokinetic study of Compound (XI) after topical administration (Example 3); type: in vivo, Dutch-Belted rabbits; details: eyedrops 1% API, 50 μL BID for 3 days; rabbit
# Protocol: A formulation was prepared as in Example 1 but using Compound (XI) instead of Compound (V). Compound (XI) was administered as eyedrops (1% API, 50 μL) BID for 3 days. On day 3 following a single dose, rabbits were sacrificed, enucleated and various ocular tissues (retina, choroid, cornea, etc) collected. Concentrations in the tissues were measured using LC/MS/MS, following tissue homogenization and acetonitrile precipitation. PK data analysis was conducted using WINNONLIN program. […] Half-life was long at approximately 8 hours.
# [7] = Pharmacokinetic study of Compounds (X) and (VIII) after topical administration (Example 12); type: in vivo, Dutch-Belted rabbits; details: Compound (V) after prodrug Compound (VIII) delivered topically to the eye
# Protocol: Formulations prepared as described in Example 9 and 11 were used. Compounds (X) and (VIII) were administered as eyedrops (50 μL) either as QD for three days or BID for three days as the dose regimen.
# The retinal concentrations varied depending on the formulation used. The cLogD at pH of 7.4 for Compound (VIII) is 0.14 while for Compound (X) is 3.54.
# [8] = Pharmacokinetic study of Compound (VI) after topical administration (Example 8); type: in vivo, Lone Evans rat pups; details: Compound (V) analysed after single 10 μL eyedrops of 0.2, 0.5 or 1% Compound (VI)
# Protocol: Formulations prepared as described in Example 5 were used. Rat pups were administered single 10 μL eyedrops of 0.2, 0.5 or 1% Compound (VI) dose. Eye tissues were collected at various time points for Compound (V) analysis using LC/MS/MS. […] Half-life of Compound (V) ranged from 5 to 8 hours in the choroids.
Molecule,solubility (Water solubility (pH 5); water) [µg/mL],further results
"CP(C)(=O)c1ccc(Nc2nc(C3CCCC3)nc3c2ncn3CCc2cccc(O)c2)cc1 [AP23464, reference compound]",–,Water solubility (Water solubility (pH 5)): >0.1 mg/mL
"CC(=O)Nc1nnc(S(N)(=O)=O)s1 [Acetazolamide, reference compound]",< 1000,–
Cc1cccc(C)c1-c1cc(C)c2nc(Nc3ccc(OCCN4CCCC4)cc3)nnc2c1 [IV],< 100,–
"Cc1cc(Nc2ncc3cc(-c4c(Cl)cccc4Cl)c(=O)n(C)c3n2)ccc1F [PD180970, reference compound]",–,Water solubility (Water solubility (pH 5)): <<0.1 mg/mL
"Cc1ccc(-c2nn(C(C)(C)C)c3ncnc(N)c23)cc1 [PP1, reference compound]",–,Water solubility (Water solubility (pH 5)): <0.1 mg/mL
"CC1(C)O[C@@H]2C[C@H]3[C@@H]4CCC5=CC(=O)C=C[C@]5(C)[C@@]4(F)[C@@H](O)C[C@]3(C)[C@]2(C(=O)CO)O1 [TAA, reference compound]",–,Water solubility (Water solubility (pH 5)): <0.1 mg/mL
Cc1cc(-c2cc(O)ccc2Cl)cc2nnc(Nc3ccc(S(=O)(=O)NCCN4CCCC4)cc3)nc12 [VII],< 100,–
Cc1cc(-c2cc(OC(=O)c3ccccc3)ccc2Cl)cc2nnc(Nc3ccc(OCCN4CCCC4)cc3)nc12 [VI],< 100,"Back of the eye concentrations, dependence on dose regimen [2]: linear; Reduction of area of neovascularization compared to control ([3]; 50 μg per eye): approximately 47%; Reduction of area of neovascularization compared to control ([3]; 150 μg per eye): approximately 35%; Effect on choroidal neovascularization (FIG. 2) ([3]; topical administration): prevents choroidal neovascularization; Inhibition of retinal leak ([4]; QD eyedrop administration): 100%"
Cc1cc(-c2cc(O)ccc2Cl)cc2nnc(Nc3ccc(OCCN4CCCC4)cc3)nc12 [V],< 100,"Choroidal concentration relative to retinal concentration [5]: 4 fold; Half-life (comparison) [5]: about two times longer; Concentrations in the choroid [6]: at the μM level; Amount of API recovered from the retina and the choroid [7]: No measurable amount; Concentrations in the retina, dose dependence [8]: non-linear; Mean AUC in the choroid, dose dependence [8]: linear; Inhibition of retinal leak ([4]; QD eyedrop administration): 50%; Inhibition of retinal leak ([4]; TID eyedrop dosing): ~80%"
"Clc1ccc(Nc2nnc(Cc3ccncc3)c3ccccc23)cc1 [Vatalanib, reference compound]",> 2000,Phospholipid affinity PC: Drug (molar) [1]: Not stable
Cc1cc(-c2cc(OP(=O)([O-])[O-])ccc2Cl)cc2nnc(Nc3ccc(OCCN4CCCC4)cc3)nc12.[Na+].[Na+] [XII],< 100,–
Cc1cc(-c2c(Cl)cccc2Cl)cc2nnc(Nc3ccc(OCCN4CCCC4)cc3)nc12 [XI],< 100,–
Nc1nc(O)c2nc(-c3cccc(O)c3)c(-c3cccc(O)c3)nc2n1 [XXI],< 100,–
Cc1cc(-c2cc(OC(=O)C(C)C)ccc2Cl)cc2nnc(Nc3ccc(OCCN4CCCC4)cc3)nc12 [XX],< 100,–
"CC(C)NCC(O)COc1cccc2ccccc12 (stereo not drawn) [propanolol, reference compound]",–,solubility (Water solubility (pH 5)): ~100 µg/mL
Tropicamide [reference compound],–,Water solubility (Water solubility (pH 5)): <1 mg/mL

# Now from value to molecule, other results behind:
solubility (Water solubility (pH 5); water) [µg/mL],Molecule,further results
< 100,"COc1ccc(Cl)c(Nc2ncnc3cc(OCC4CCN(C)CC4)c(OC)cc23)c1 [AZM475271, reference compound]",Phospholipid affinity PC: Drug (molar) [1]: 50.73
> 2000,"Brc1c(NC2=NCCN2)ccc2nccnc12 [Brimonidine, reference compound]",–
< 1000,"CC(C)CCC[C@@H](C)[C@H]1CC[C@H]2[C@@H]3CC=C4C[C@@H](O)CC[C@]4(C)[C@H]3CC[C@]12C [Cholesterol, reference compound]",–
< 100,O=C(Nc1cnc(Nc2cccc(OCCN3CCCC3)c2)nc1)c1c(Cl)cccc1Cl [I],–
< 1000,"COc1cc(Nc2c(C#N)cnc3cc(OCCCN4CCN(C)CC4)c(OC)cc23)c(Cl)cc1Cl [SKI606, reference compound]",–
> 1000,"CCN(CC)CCNC(=O)c1c(C)[nH]c(/C=C2\C(=O)Nc3ccc(F)cc32)c1C [Su11248, reference compound]",–
< 100,"C=CC[C@@H]1/C=C(\C)C[C@H](C)C[C@H](OC)[C@H]2O[C@@](O)(C(=O)C(=O)N3CCCC[C@H]3C(=O)O[C@H](/C(C)=C/[C@@H]3CC[C@@H](O)[C@H](OC)C3)[C@H](C)[C@@H](O)CC1=O)[C@H](C)C[C@@H]2OC [Tacrolimus, reference compound]",–
< 100,Cc1cccc(C)c1-c1cc(C)c2nc(Nc3ccc(S(=O)(=O)NCCN4CCCC4)cc3)nnc2c1 [XIII],–
< 100,Cc1ccc(C(=O)Oc2ccc(Cl)c(-c3cc(C)c4nc(Nc5ccc(OCCN6CCCC6)cc5)nnc4c3)c2)cc1 [XIX],–
< 100,Cc1cc(-c2cc(OC(=O)c3ccccc3)ccc2Cl)cc2nnc(Nc3ccc(S(=O)(=O)NCCN4CCCC4)cc3)nc12 [XVIII],–
< 100,CC(=O)Oc1ccc(Cl)c(-c2cc(C)c3nc(Nc4ccc(OCCN5CCCC5)cc4)nnc3c2)c1 [XVII],–
< 100,Cc1cc(-c2c(Cl)ccc(O)c2Cl)cc2nnc(Nc3ccc(S(=O)(=O)NCCN4CCCC4)cc3)nc12 [XVI],–
< 100,Cc1cc(-c2cc(O)ccc2Br)cc2nnc(Nc3ccc(S(=O)(=O)NCCN4CCCC4)cc3)nc12 [XV],–
< 100,Cc1cc(-c2cc(OC(=O)C(C)(C)C)ccc2Cl)cc2nnc(Nc3ccc(OCCN4CCCC4)cc3)nc12 [X],–
